Where “and” joins values, the source holds several entries; their conditions need not be identical. Equal entries are not always repeated. Where two headings read alike, the source gives them in different places. Each block holds one compound with its values, some of them ahead of it.
Experiments:
[1] = system: MM.1S cells; test: Inhibition of MM cell proliferation, [3H]-thymidine uptake, MM.1S; format: cell-based; conditions: for IC50: Homo sapiens, MM1.S
Description: (§1) The uptake of [^3H]-thymidine by different MM cell lines (MM.1S, Hs Sultan, U266 and RPMI-8226) was measured as an indicator of the cell proliferation.
(§2) Uptake [^3H]-thymidine by different MM cell lines (MM.1S, Hs Sultan, U266 and RPMI-8226) was measured as an indicator of cell proliferation. Cells were incubated in the presence of compounds for 48 hours; [^3H]-thymidine was included for the last 8 hours of the incubation period.

[2] = system: Hs Sultan cells; test: Inhibition of MM cell proliferation, [3H]-thymidine uptake, Hs Sultan; format: cell-based
Description: as §1, §2

[3] = Pharmacokinetics of Actimid in relapsed/refractory multiple myeloma patients; format: in vivo, human
Description: 6.5.1 Treatment of Relapsed Multiple Myeloma p 4-(Amino)-2-(2,6-dioxo(3-piperidyl))-isoindoline-1,3-dione (Actimid™) was administered to patients with relapsed/refractory multiple myeloma. The study was conducted in compliance with Good Clinical Practices. Patients were at least 18 years old, had been diagnosed with multiple myeloma (with paraprotein in serum and/or urine), and were considered refractory to treatment after at least two cycles of treatment, or have relapsed after two cycles of treatment.
Patients who have progressive disease, according to the Southwest Oncology Group (SWOG) criteria, on their prior regimen are considered treatment refractory. Relapse following remission is defined as >25% increase in M component from baseline levels; reappearance of the M paraprotein that had previously disappeared; or a definite increase in the size and number of lytic bone lesions recognized on radiographs. Patients may have had prior therapy with thalidomide, provided they were able to tolerate the treatment. A Zubrod performance status of 0 to 2 is required for all patients.
4-(Amino)-2-(2,6-dioxo(3-piperidyl))-isoindoline-1,3-dione is administered to patients at doses of 1, 2, 5, or 10 mg/day for up to four weeks; at each dose level, three patients are initially enrolled. Dosing occurs at approximately the same time each morning; all doses are administered in the fasted state (no eating for at least two hours prior to dosing and two hours after dosing). 4-(Amino)-2-(2,6-dioxo(3-piperidyl))-isoindoline-1,3-dione doses are administered in an ascending fashion such that patients in the first cohort receive the lowest dose of 4-(amino)-2-(2,6-dioxo(3-piperidyl))-isoindoline-1,3-dione (1 mg/day) and escalation to the next higher dose level occurs only following the establishment of safety and tolerability at the current dose. If one out of three patients at any dose level experience dose limiting toxicity (DLT), three additional patients are enrolled at that dose. If none of the three additional patients experience DLT, escalation to the next dose level occurs; dose escalations continue in a similar fashion until the MTD is established or the maximum daily dose (10 mg/day) is attained. However, if one of the three additional patients enrolled experiences DLT, the MTD has been reached. If two or more of the three additional patients enrolled experience DLT, the MTD is judged to have been exceeded and three additional patients are enrolled at the preceding dose level to confirm the MTD. Once the MTD has been identified, four additional patients are enrolled at that dose level so that a total of 10 patients is treated at the MTD.
Blood sampling for analysis of pharmacokinetic parameters is performed on Days 1 and 28 according to the following sampling schedule: pre-dose, 0.25, 0.5, 0.75, 1, 1.5, 2, 2.5, 3, 4, 6, 8, 10, 12, 18, and 24 hours post-dose. An additional blood sample is collected at each weekly visit for the determination of 4-(amino)-2-(2,6-dioxo(3-piperidyl))-isoindoline-1,3-dione levels. Total urine collections are also made with urine pooled according to the following time intervals post-dose: 0 to 4, 4 to 8, 8 to 12, and 12 to 24 hours. Safety assessments are made by monitoring adverse events, vital signs, ECGs, clinical laboratory evaluations (blood chemistry, hematology, lymphocyte phenotyping, and urinalysis), and physical examination at specific times during the study.

[4] = system: TNF-α production; conditions: human PBMC, cited from earlier work; for IC50: LPS, read-out: IC50 for inhibiting production of TNF-α following LPS-stimulation of PBMC
[5] = system: TNF-α production; conditions: cited from earlier work; for IC50: human whole blood, LPS, read-out: IC50 for inhibiting production of TNF-α following LPS-stimulation of human whole blood
[6] = system: TNF-α production; test: Inhibition of TNF-α production following LPS-stimulation of human PBMC; format: cell-based
[7] = system: T-cells; test: Stimulation of T-cell proliferation following primary induction by T-cell receptor (TCR) activation; format: cell-based
[8] = system: IL-2; test: Augmentation of IL-2 production following TCR activation of PBMC; format: cell-based
[9] = system: IFN-γ; test: Augmentation of IFN-γ production following TCR activation of T-cells; format: cell-based
[10] = LPS-stimulated production of IL-113 by PBMC; format: cell-based
[11] = system: IL-6; test: LPS-stimulated production of IL-6 by PBMC; format: cell-based
[12] = system: IL-10; test: LPS-stimulated production of IL-10 by PBMC; format: cell-based
[13] = Cardiovascular and respiratory function in anesthetized dogs; format: in vivo, Beagle dogs
Excerpt: Two groups of Beagle dogs (2/sex/group) are used.

[14] = Phase 1 studies in refractory or relapsed multiple myeloma patients: pharmacokinetics; format: in vivo
Description: (§3) Patients started 3-(4-amino-1-oxo-1,3-dihydro-isoindol-2-yl) -piperidine -2,6-dione treatment at 5 mg/day with subsequent escalation to 10, 25, and 50 mg/day. […] Patients were evaluated for adverse events at each visit and the severity of these events was graded according to the National Cancer Institute (NCI) Common Toxicity Criteria. Patients were discontinued if they experienced DLT (Grade 3 or greater non-hematological, or Grade 4 hematological toxicity).
Blood and urine samples were collected for analysis of pharmacokinetic parameters on Days 1 and 28. Blood samples were collected according to the following sampling schedule: pre-dose, 0.25, 0.5, 0.75, 1, 1.5, 2, 2.5, 3, 4, 6, 8, 10, 12, 18, and 24 hours post-dose. In addition, a blood sample was collected at each weekly clinic visit for 3-(4-amino-1-oxo-1,3-dihydro-isoindol-2-yl)-piperidine-2,6-dione determination. Total urine was collected and pooled according to the following time intervals post-dose: 0 to 4, 4 to 8, 8 to 12, and 12 to 24 hours. […] Bone marrow aspirations and/or tissue biopsy are also performed at Months 3, 6 and 12 if a patient's paraprotein serum concentration or 24-hour urine protein excretion declined to the next lower level, based on best response criteria.

[15] = Phase 1 studies in refractory or relapsed multiple myeloma patients: dose limiting toxicity; format: in vivo
Description: as §3
The second cohort of 3 patients subsequently commenced therapy at 10 mg/day.

[16] = Phase 1 study in patients with solid tumors: dose limiting toxicity; format: in vivo; conditions: initial group of 20 patients with solid tumors, 5 escalated to 50 mg/day over 4 weeks
Description: Patients who, experienced clinical benefit were permitted to continue on treatment as Named Patients.
The study initially enrolled 20 patients and was subsequently amended to enroll 16 additional patients (adrenal carcinoma, NSCLC, malignant mesothelioma, breast cancer, metastatic melanoma (8), renal cell cancer (4)) at a higher dose. The 16 additional patients were given weekly escalating doses of 25 mg/day, 50 mg/day, 75 mg/day, 100 mg/day, 125 mg/day, and 150 mg/day over a 6-week period with continuing treatment for an additional six weeks.
The study design dictates that at least 3 patients must be enrolled at a dose level and have completed 28 days of treatment prior to enrollment of patients at the next higher dose level. […] Patients will be escalated to 10, 20, 25, and 30 mg/day provided there is no toxicity.
If, at any given dose level in either study, one out of three patients experiences toxicity, three additional patients must be treated at that particular dose. If, however, two out of six patients experience DLT, the MTD is judged to have been exceeded. No further dose escalations are to occur and additional patients are to be enrolled at the previous dose level. The dose of 3-(4-amino-l-oxo-1,3-dihydro-isoindol-2-yl)-piperidine-2,6-dione administered is escalated until the MTD is achieved or the maximum daily dose […] is reached.

[17] = system: metastatic melanoma; test: Treatment of metastatic melanoma patients; format: in vivo, human
Description: The dose was then increased every seven days to 10 mg/day, 25 mg/day, and 50 mg/day, respectively, for a total of four weeks on therapy.

fold increase in AUC(01) with a 5-fold increase in dose ([3]; Day 1): 3.6 fold | fold increase in Cmax with a five-fold higher dose ([3]; Day 1): 3.2 fold | fold increase in AUC(01) with a 5-fold increase in dose ([3]; Week 4): 2.3 fold | fold increase in Cmax with a five-fold higher dose ([3]; Week 4): 2.2 fold | absorption ([3]; all dose levels, relapsed multiple myeloma patients): steadily absorbed | decline of plasma concentrations after reaching Cmax ([3]; human, in vivo): monophasic manner | median Tmax ([3]; human, in vivo): 3 to 4 h | CL/F ([3]; human, in vivo, 1 mg): 114.75 mL/min | CL/F ([3]; human, in vivo, 2 mg): 121.43 mL/min | CL/F ([3]; human, in vivo, 5 mg): 182.31 mL/min | t½ ([3]; human, in vivo, 5 mg): 6.5 h
SMILES: Nc1cccc2c1C(=O)N(C1CCC(=O)NC1=O)C2=O (centres unmarked) [Actimid, 4-(Amino)-2-(2,6-dioxo(3-piperidyl))-isoindoline-1,3-dione]
IC50 ([1]; read-out: concentration achieving 50% inhibition of proliferation, MM.IS cells): 0.00273 µg/mL to 0.0273 µg/mL and 10 nM to 100 nM | IC50 ([2]; read-out: concentration achieving 50% inhibition of proliferation): 0.00273 µg/mL to 0.0273 µg/mL and 10 nM to 100 nM | IC50 [4]: ~24 nM | IC50 for inhibiting production of TNF-α following LPS-stimulation of PBMC [4]: 0.00655 µg/mL | IC50 for inhibiting production of TNF-α following LPS-stimulation of human whole blood [5]: 0.00683 µg/mL | IC50 [5]: ~25 nM

SMILES: O=C1CCC(N2C(=O)c3ccccc3C2=O)C(=O)N1 (centres unmarked) [thalidomide, reference compound]
inhibition of cell proliferation ([1]; MM.1S cells, concentrations up to 100 μm, 48 hours): 15% | inhibition of cell proliferation ([2]; concentrations up to 100 μm, 48 hours): 20% | IC50 [4]: ~194000 nM | IC50 for inhibiting production of TNF-α following LPS-stimulation of PBMC [4]: 50.2 µg/mL

IC50 ([1]; read-out: concentration resulting in 50% inhibition of cell proliferation, MM.1S cells, 48 hours, [3H]-thymidine last 8 hours): 400 nM | accumulation with multiple dosing ([14]; human, in vivo): no evidence of accumulation | half-live in patients, mean ([14]; human, in vivo): 8 h | half-live in patients, range ([14]; human, in vivo): up to 17 hours | plasma concentration profile ([14]; human, in vivo): double peaks were observed | clearance compared to healthy volunteers ([14]; multiple myeloma patients): lower | exposure (Cmax and AUC) compared to healthy male volunteers ([14]; multiple myeloma patients): slightly higher
SMILES: Nc1cccc2c1CN(C1CCC(=O)NC1=O)C2=O (centres unmarked) [3-(4-amino-1-oxo-1,3-dihydro-isoindol-2-yl)-piperidine-2,6-dione]
LPS-stimulated production of TNF-α by PBMC [6]: dose-dependent inhibition | IC50 ([2]; read-out: concentration resulting in 50% inhibition of cell proliferation, 48 hours, [3H]-thymidine last 8 hours): 1000 nM | times more potent than thalidomide in stimulating the proliferation of T-cells [7]: 50-100 times | times more potent than thalidomide in augmenting the production of IL-2 [8]: 50-100 times | times more potent than thalidomide in augmenting the production of IFN-γ [9]: 50-100 times | LPS-stimulated production of IL-113 by PBMC [10]: dose-dependent inhibition | LPS-stimulated production of IL-6 by PBMC [11]: dose-dependent inhibition | production of the anti-inflammatory cytokine IL-10 [12]: increased production | cardiovascular and respiratory changes compared to the vehicle control group ([13]; anesthetized Beagle dogs, all doses (2, 10, and 20 mg/kg), infusion through the jugular vein): minimal | increase in arterial blood pressure at higher doses ([13]; anesthetized dogs, higher doses (10, 20 mg/kg)): not seen at higher doses | duration of the increase in arterial blood pressure ([13]; anesthetized dogs, low dose): approximately 15 minutes | arterial blood pressure after small increase (from 94 mmHg) ([13]; anesthetized dogs, low dose (2 mg/kg), infusion): 101 mmHg | deviations in femoral blood flow, respiratory parameters, and Qtc interval ([13]; anesthetized dogs, common to control and treated groups): not considered treatment-related | dose limiting toxicity (DLT) ([15]; 5 mg/day for 28 days, first cohort of 3 patients): without any dose limiting toxicity | tolerability ([15]; 10 mg/day, second cohort of 3 patients): tolerated treatment well | DLTs [16]: No DLTs were reported | patients showing disease stabilization or a partial response ([17]; first four weeks of treatment, 5 escalated weekly to 10, 25, 50 mg/day): Five of the 13 | duration of response ([17]; metastatic melanoma patients): approximately six | tumor response in cutaneous and subcutaneous lesions ([17]; metastatic melanoma patients): five | tumor response in liver ([17]; metastatic melanoma patients): one | tumor response in lymph nodes ([17]; metastatic melanoma patients): two | IC50 [4]: ~100 nM | IC50 for inhibiting production of TNF-α following LPS-stimulation of PBMC [4]: 0.0259 µg/mL | IC50 for inhibiting production of TNF-α following LPS-stimulation of human whole blood [5]: 0.1036 µg/mL | IC50 [5]: ~480 nM
